Experimental findings from patent publication US9975861B2, “Dual inhibitor compounds for use in the treatment of neurodegenerative disorders and alzheimer's disease” (FONDAZIONE ISTITUTO ITALIANO DI TECNOLOGIA, priority 2014, dated 2018) are described below.

One experiment has as its target β-secretase (BACE-1) (Homo sapiens (Human), UniProt P56817). Kind of experiment: Inhibition of BACE-1 (fluorogenic APP-mimicking peptide substrate). The following applies: BACE-1 IC50 (μM), substrate 3 μM, 1 hour pre-incubation at rt, 15 minutes at 37° C.
For another experiment, the target named is Human recombinant GSK-3β (Homo sapiens (Human), UniProt P49841). Kind of experiment: Inhibition of GSK-3β (Kinase-Glo luminescent kinase assay). Type of experiment: biochemical. The following applies: 1 μM ATP, 25 μM substrate, 30 minutes at 30° C. The method, then: Human recombinant GSK-3β was purchased from Millipore (Millipore Iberica S.A.U.) The prephosphorylated polypeptide substrate was purchased from Millipore (Millipore Iberica SAU). Kinase-Glo Luminescent Kinase Assay was obtained from Promega (Promega Biotech Iberica, SL). ATP and all other reagents were from Sigma-Aldrich. Assay buffer contained 50 mM 4-(2-hydroxyethyl)-1-piperazineethanesulfonic acid (HEPES) (pH 7.5), 1 mM ethylenediaminetetraacetic acid (EDTA), 1 mM ethylene glycol tetraacetic acid (EGTA), and 15 mM magnesium acetate. The method developed by Baki was followed [Baki et al. Assay and Drug Development Technologies 2007, 5(1),75-83] to analyze the inhibition of GSK-3β. Kinase-Glo assays were performed in assay buffer using white 96-well plates. In a typical assay, 10 μL (10 μM) of test compound (dissolved in DMSO at 1 mM concentration and diluted in advance in assay buffer to the desired concentration) and 10 μL (20 ng) of enzyme were added to each well followed by 20 μL of assay buffer containing 25 μM substrate and 1 μM adenosine triphosphate (ATP). […] After a 30 minutes incubation at 30° C., the enzymatic reaction was stopped with 40 μL of Kinase-Glo reagent. Glow-type luminescence was recorded after 10 minutes using a Fluoroskan Ascent multimode reader.
Sequence of Human recombinant GSK-3β (P49841 whole entry): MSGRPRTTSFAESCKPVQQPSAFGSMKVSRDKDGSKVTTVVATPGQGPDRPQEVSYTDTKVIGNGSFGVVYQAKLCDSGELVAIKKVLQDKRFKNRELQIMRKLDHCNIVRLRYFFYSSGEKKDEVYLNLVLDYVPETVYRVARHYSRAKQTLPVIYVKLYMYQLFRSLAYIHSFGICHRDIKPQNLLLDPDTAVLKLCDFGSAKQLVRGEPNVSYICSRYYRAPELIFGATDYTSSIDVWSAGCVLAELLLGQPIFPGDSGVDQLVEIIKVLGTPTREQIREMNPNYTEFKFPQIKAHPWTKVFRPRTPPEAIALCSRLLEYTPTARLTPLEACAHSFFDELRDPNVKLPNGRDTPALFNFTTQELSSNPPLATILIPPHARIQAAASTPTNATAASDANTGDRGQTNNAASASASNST
The activity is proportional to the difference of the total and consumed ATP.

Sequence of β-secretase (BACE-1) (P56817 46-501): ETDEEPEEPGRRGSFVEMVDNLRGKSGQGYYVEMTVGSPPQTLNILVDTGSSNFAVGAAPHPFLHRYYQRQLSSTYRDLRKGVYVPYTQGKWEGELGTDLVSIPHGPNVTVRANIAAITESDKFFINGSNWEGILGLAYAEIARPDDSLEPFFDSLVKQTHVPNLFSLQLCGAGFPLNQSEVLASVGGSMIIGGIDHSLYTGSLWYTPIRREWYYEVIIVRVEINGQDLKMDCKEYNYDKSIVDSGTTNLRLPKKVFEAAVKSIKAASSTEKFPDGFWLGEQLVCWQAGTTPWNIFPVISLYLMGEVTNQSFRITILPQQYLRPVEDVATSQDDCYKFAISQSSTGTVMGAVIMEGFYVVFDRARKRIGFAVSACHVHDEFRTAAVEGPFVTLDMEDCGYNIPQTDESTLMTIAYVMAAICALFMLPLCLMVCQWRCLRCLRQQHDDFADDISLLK
Procedure for β-secretase (BACE-1): β-secretase (BACE-1, Sigma-Aldrich) inhibition studies were performed by employing a peptide mimicking APP sequence as substrate (Methoxycoumarin-[sequence]dinitrophenyl, M-2420, Bachem, Germany). The following procedure was employed: 5 μL of test compounds (or DMSO, if preparing a control well) were pre-incubated with 175 μL of enzyme (in 20 mM sodium acetate containing 3-[(3-Cholamidopropyl)dimethylammonio]-1-propanesulfonate (CHAPS) 0.1% w/v) for 1 hour at rt. The substrate (3 μM, final concentration) was then added and left to react for 15 minutes at 37° C. The fluorescence signal was read at λem=405 nm (λexc=320 nm) using a Fluoroskan Ascent. […] The fluorescence intensities with and without inhibitor were compared and the percent inhibition due to the presence of test compounds was calculated. The background signal was measured in control wells containing all the reagents, except BACE-1 and subtracted. The % inhibition due to the presence of increasing test compound concentration was calculated by the following expression: 100−(IFi/IFo×100) where IFi and IFo are the fluorescence intensities obtained for BACE-1 in the presence and in the absence of inhibitor, respectively. […] The linear regression parameters were determined and the IC50 extrapolated (GraphPad Prism 4.0, GraphPad Software Inc.).

A word on the IC50: it is the concentration at which inhibition is half-maximal. Regarding `CCCNC1=NC(c2ccc(F)cc2)NC(=O)N1` (centres unmarked) [Example 6, 4-(4-fluorophenyl)-6-(propylamino)-3,4-dihydro-1,3,5-triazin-2(1H)-one], the half-maximal inhibitory concentration (IC50) against β-secretase (BACE-1) is 36.8 ± 9.85 µM; on Human recombinant GSK-3β, 4.34 ± 0.63 µM.
